Legend:
E. coli = assay: MIC, E. coli; conditions: Escherichia coli
S. aureus = assay: MIC, S. aureus; conditions: Staphylococcus aureus
M. haemolytica = assay: MIC, M. haemolytica; conditions: Mannheimia haemolytica
P. multocida = assay: MIC, P. multocida; conditions: Pasteurella multocida
TNF-α = assay: Bovine whole blood assay, LPS-induced TNF-α; type: cell-based; conditions: Bos taurus, fresh whole bovine blood, LPS 1 μg/mL
Experimental: (§1) (protected from light) for 30 minutes.

IL-6 = assay: Bovine whole blood assay, IL-6; type: cell-based; conditions: Bos taurus, fresh whole bovine blood, LPS 1 μg/mL
Experimental: as §1

IL-1β = assay: Bovine whole blood assay, IL-1β; type: cell-based; conditions: overstimulation of IL-1β, perceived cellular toxicity concentration;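 also: compound concentration at which rising IL-1β release signals cytotoxicity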
Experimental: as §1

[1] = tested on: BRD pathogens, M. haemolytica and P. multocida; assay: MIC screening panel, BRD pathogens (CLSI broth micro-dilution); conditions: read-out: MIC flag (*) at Ex #
[2] = M. haemolytica 46571, bovine efficacy challenge strain
[3] = P. multocida 46572, murine efficacy challenge strain

| SMILES | IC50 (TNF-α) [µM] | IC50 (IL-6) [µM] | MIC (E. coli; E. coli 25922) [µg/mL] | MIC (E. coli; E. coli W3110) [µg/mL] | MIC (S. aureus) [µg/mL] | MIC (M. haemolytica; M. haemolytica 12726) [µg/mL] | MIC (M. haemolytica; M. haemolytica 33396) [µg/mL] | MIC (M. haemolytica; [2]) [µg/mL] | MIC (P. multocida; P. multocida 43137) [µg/mL] | MIC (P. multocida; [3]) [µg/mL] | IL-1β OS of LPS (IL-1β) [µM] | MIC [1] [µg/mL] |
| --- | --- | --- | --- | --- | --- | --- | --- | --- | --- | --- | --- | --- |
| CC[C@H]1OC(=O)[C@H](C)[C@@H](O[C@H]2C[C@@](C)(OC)[C@](O)(CNC3CCC3)[C@H](C)O2)[C@H](C)[C@@H](O[C@@H]2O[C@H](C)C[C@H]3[C@H]2OC(C(F)(F)F)N3C)[C@](C)(O)C[C@@H](C)CN[C@H](C)[C@@H](O)[C@]1(C)O (stereo partly drawn) [Example A-7, (2R,3S,4R,5R,8R,10R,11R,12S,13S,14R)-13-(((2R,4R,5S,6S)-5-((cyclobutylamino)methyl)-5-hydroxy-4-methoxy-4,6-dimethyltetrahydro-2H-pyran-2-yl)oxy)-11-(((3aR,4S,6R,7aS)-1,6-dimethyl-2-(trifluoromethyl)hexahydro-2H-pyrano[4,3-d]oxazol-4-yl)oxy)-2-ethyl-3,4,10-trihydroxy-3,5,8,10,12,14-hexamethyl-1-oxa-6-azacyclopentadecan-15-one] |  |  | > 64 | > 64 | > 64 | > 64 | > 64 | > 64 | > 64 | > 64 |  |  |
| CC[C@H]1OC(=O)[C@H](C)[C@@H](O[C@H]2C[C@@](C)(OC)[C@](O)(CNCCS(C)(=O)=O)[C@H](C)O2)[C@H](C)[C@@H](O[C@@H]2O[C@H](C)C[C@H]3[C@H]2OC(C(F)(F)F)N3C)[C@](C)(O)C[C@@H](C)CN[C@H](C)[C@@H](O)[C@]1(C)O (stereo partly drawn) [Example A-9, (2R,3S,4R,5R,8R,10R,11R,12S,13S,14R)-11-(((3aR,4S,6R,7aS)-1,6-dimethyl-2-(trifluoromethyl)hexahydro-2H-pyrano[4,3-d]oxazol-4-yl)oxy)-2-ethyl-3,4,10-trihydroxy-13-(((2R,4R,5S,6S)-5-hydroxy-4-methoxy-4,6-dimethyl-5-(((2-(methylsulfonyl)ethyl)amino)methyl)tetrahydro-2H-pyran-2-yl)oxy)-3,5,8,10,12,14-hexamethyl-1-oxa-6-azacyclopentadecan-15-one] | 28 | 70 |  |  |  |  |  |  |  |  | 40 |  |
| CC[C@H]1OC(=O)[C@H](C)[C@@H](O[C@H]2C[C@@](C)(OC)[C@](O)(CNCCN3CCCC3=O)[C@H](C)O2)[C@H](C)[C@@H](O[C@@H]2O[C@H](C)C[C@H]3[C@H]2OC(C(F)(F)F)N3C)[C@](C)(O)C[C@@H](C)CN[C@H](C)[C@@H](O)[C@]1(C)O (stereo partly drawn) [Example A-12, (2R,3S,4R,5R,8R,10R,11R,12S,13S,14R)-11-(((3aR,4S,6R,7aS)-1,6-dimethyl-2-(trifluoromethyl)hexahydro-2H-pyrano[4,3-d]oxazol-4-yl)oxy)-2-ethyl-3,4,10-trihydroxy-13-(((2R,4R,5S,6S)-5-hydroxy-4-methoxy-4,6-dimethyl-5-(((2-(2-oxopyrrolidin-1-yl)ethyl)amino)methyl)tetrahydro-2H-pyran-2-yl)oxy)-3,5,8,10,12,14-hexamethyl-1-oxa-6-azacyclopentadecan-15-one] | 45 | 24 | > 64 | > 64 | > 64 | > 64 | > 64 | > 64 | > 64 | > 64 | 40 |  |
| CC[C@H]1OC(=O)[C@H](C)[C@@H](O[C@H]2C[C@@](C)(OC)[C@](O)(CNCC3CCC(=O)N3)[C@H](C)O2)[C@H](C)[C@@H](O[C@@H]2O[C@H](C)C[C@H]3[C@H]2OC(C(F)(F)F)N3C)[C@](C)(O)C[C@@H](C)CN[C@H](C)[C@@H](O)[C@]1(C)O (stereo partly drawn) [Example A-21, (2R,3S,4R,5R,8R,10R,11R,12S,13S,14R)-11-(((3aR,4S,6R,7aS)-1,6-dimethyl-2-(trifluoromethyl)hexahydro-2H-pyrano[4,3-d]oxazol-4-yl)oxy)-2-ethyl-3,4,10-trihydroxy-13-(((2R,4R,5S,6S)-5-hydroxy-4-methoxy-4,6-dimethyl-5-((((5-oxopyrrolidin-2-yl)methyl)amino)methyl)tetrahydro-2H-pyran-2-yl)oxy)-3,5,8,10,12,14-hexamethyl-1-oxa-6-azacyclopentadecan-15-one] | 80 | 78 |  |  |  |  |  |  |  |  | 32 |  |
| CC[C@H]1OC(=O)[C@H](C)[C@@H](O[C@H]2C[C@@](C)(OC)[C@](O)(CN3CCOCC3)[C@H](C)O2)[C@H](C)[C@@H](O[C@@H]2O[C@H](C)C[C@H]3[C@H]2OC(C(F)(F)F)N3C)[C@](C)(O)C[C@@H](C)CN[C@H](C)[C@@H](O)[C@]1(C)O (stereo partly drawn) [Example B-1, (2R,3S,4R,5R,8R,10R,11R,12S,13S,14R)-11-(((3aR,4S,6R,7aS)-1,6-dimethyl-2-(trifluoromethyl)hexahydro-2H-pyrano[4,3-d]oxazol-4-yl)oxy)-2-ethyl-3,4,10-trihydroxy-13-(((2R,4R,5S,6S)-5-hydroxy-4-methoxy-4,6-dimethyl-5-(morpholinomethyl)tetrahydro-2H-pyran-2-yl)oxy)-3,5,8,10,12,14-hexamethyl-1-oxa-6-azacyclopentadecan-15-one] | 10 |  | > 64 | > 64 | > 64 | > 64 | > 64 | > 64 | > 64 | > 64 | 13 |  |

Now from value to compound, other results behind:

| IC50 (TNF-α) [µM] | IC50 (IL-6) [µM] | SMILES | MIC (E. coli; E. coli 25922) [µg/mL] | MIC (E. coli; E. coli W3110) [µg/mL] | MIC (S. aureus) [µg/mL] | MIC (M. haemolytica; M. haemolytica 12726) [µg/mL] | MIC (M. haemolytica; M. haemolytica 33396) [µg/mL] | MIC (M. haemolytica; [2]) [µg/mL] | MIC (P. multocida; P. multocida 43137) [µg/mL] | MIC (P. multocida; [3]) [µg/mL] | IL-1β OS of LPS (IL-1β) [µM] | MIC [1] [µg/mL] |
| --- | --- | --- | --- | --- | --- | --- | --- | --- | --- | --- | --- | --- |
| 70 | 29 | CC[C@H]1OC(=O)[C@H](C)[C@@H](O[C@H]2C[C@@](C)(OC)[C@](O)(CNCCN3CCOC3=O)[C@H](C)O2)[C@H](C)[C@@H](O[C@@H]2O[C@H](C)C[C@H]3[C@H]2OC(C(F)(F)F)N3C)[C@](C)(O)C[C@@H](C)CN[C@H](C)[C@@H](O)[C@]1(C)O (stereo partly drawn) [Example A-24, (2R,3S,4R,5R,8R,10R,11R,12S,13S,14R)-11-(((3aR,4S,6R,7aS)-1,6-dimethyl-2-(trifluoromethyl)hexahydro-2H-pyrano[4,3-d]oxazol-4-yl)oxy)-2-ethyl-3,4,10-trihydroxy-13-(((2R,4R,5S,6S)-5-hydroxy-4-methoxy-4,6-dimethyl-5-(((2-(2-oxooxazolidin-3-yl)ethyl)amino)methyl)tetrahydro-2H-pyran-2-yl)oxy)-3,5,8,10,12,14-hexamethyl-1-oxa-6-azacyclopentadecan-15-one] |  |  |  |  |  |  |  |  | 40 |  |
| 3 | 1 | CCCNC[C@]1(O)[C@H](C)O[C@@H](O[C@H]2[C@H](C)[C@@H](O[C@@H]3O[C@H](C)C[C@H]4[C@H]3OC(C(F)(F)F)N4CC(C)C)[C@](C)(O)C[C@@H](C)CN[C@H](C)[C@@H](O)[C@](C)(O)[C@@H](CC)OC(=O)[C@@H]2C)C[C@@]1(C)OC (stereo partly drawn) [Example A-27, (2R,3S,4R,5R,8R,10R,11R,12S,13S,14R)-2-ethyl-3,4,10-trihydroxy-13-(((2R,4R,5S,6S)-5-hydroxy-4-methoxy-4,6-dimethyl-5-((propylamino)methyl)tetrahydro-2H-pyran-2-yl)oxy)-11-(((3aR,4S,6R,7aS)-1-isobutyl-6-methyl-2-(trifluoromethyl)hexahydro-2H-pyrano[4,3-d]oxazol-4-yl)oxy)-3,5,8,10,12,14-hexamethyl-1-oxa-6-azacyclopentadecan-15-one] |  |  |  |  |  |  |  |  | 2 | < 64 |
| 8 | 12 | CCCNC[C@]1(O)[C@H](C)O[C@@H](O[C@H]2[C@H](C)[C@@H](O[C@@H]3O[C@H](C)C[C@H]4[C@H]3OC(C(F)(F)F)N4Cc3ccccc3)[C@](C)(O)C[C@@H](C)CN[C@H](C)[C@@H](O)[C@](C)(O)[C@@H](CC)OC(=O)[C@@H]2C)C[C@@]1(C)OC (stereo partly drawn) [Example A-28, (2R,3S,4R,5R,8R,10R,11R,12S,13S,14R)-11-(((3aR,4S,6R,7aS)-1-benzyl-6-methyl-2-(trifluoromethyl)hexahydro-2H-pyrano[4,3-d]oxazol-4-yl)oxy)-2-ethyl-3,4,10-trihydroxy-13-(((2R,4R,5S,6S)-5-hydroxy-4-methoxy-4,6-dimethyl-5-((propylamino)methyl)tetrahydro-2H-pyran-2-yl)oxy)-3,5,8,10,12,14-hexamethyl-1-oxa-6-azacyclopentadecan-15-one] |  |  |  |  |  |  |  |  | >250 | < 64 |

Reference: US12390440B2, “Immunomodulating trifluoromethyl-aminal azalides” (Zoetis Services LLC, priority 2020, dated 2025)
